Peptide text beside a SMILES is read from it.
Experiments:
[1] = target: PbSR10 (Plasmodium berghei, UniProt A0A509AUP3); test: Gi protein trimer dissociation assay in HEK293 cells overexpressing PbSR10; type: cell-based
[2] = target: T1, PfSR10 (Plasmodium falciparum, UniProt Q8I5P8); test: FlAsH-BRET assay of PfSR10 extracellular conformational changes; type: cell-based
Method: To characterize the binding properties of different ligands (CQ, DHA, PIP-TT, PQ, bradykinin or des-Arg9-bradykinin) to PfSR10, a FlAsH BRET assay was performed as previously described.[29]^,[32]^,[49] We seeded HEK293 cells or COS-7 cells in 6-well plate were transfected with PfSR10 FlAsH BRET sensors (S1 to S6 as indicated in Figure 4B) and incubated for 48 h at 37°C in 5% CO2. The overexpressed PfSR10 sensors cells were washed with FlAsH BRET buffer (25 mM HEPES, 1 mM CaCl2, 140 mM NaCl, 2.7 mM KCl, 0.9 mM MgCl2, 0.37 mM NaH2PO4, 5.5 mM D-glucose, 12 mM NaHCO3) and incubated with 2.5 μM FlLAsH EDT2 (pre-diluted in FLAsH BRET buffer) for 40min at 37°C in 5% CO2. The cells were washed twice, resuspended with FlAsH BRET buffer, and seeded into a 96-well plate at a density of 5x10^4 per well. After adding increasing concentrations of ligand (CQ, DHA, PIP-TT, PQ, bradykinin or des-Arg9-bradykinin) together with luciferase substrate coelenterazine-h (5 μM), the BRET signals between Nluc (440-480 nm) and FlAsH fluorescent moiety (525-585 nm) emissions were examined by a Mithras LB 940 Multimode Microplate Reader.

[3] = target: T1, PfSR10; test: GloSensor-cAMP assay, inhibition of forskolin-induced cAMP in PfSR10-overexpressing HEK293 cells; type: cell-based; details: for Fsk-induced cAMP level elevation (in words): PfSR10-overexpressing HEK293 cells, concentration-dependent
Method: (§1) To examine the constitutive activity of PfSR10, we transfected HEK293 cells with different concentrations of the receptor, including PfSR10, ADGRG2, ADGRG3. For measuring the anti-malarial drugs, bradykinin or des-Arg9-bradykinin-induced inhibition of forskolin-stimulated cAMP level in HEK293 cells or COS-7 cells, the receptor encoding plasmid (PfSR10 or its mutants) or empty plasmid (pcDNA3.1) was co-transfected with the GloSensor plasmid and incubated in an incubator at 37°C with 5% CO2 for 24 h. The transfected cells were then inoculated on 96-well plates (at a density of 4 × 10^4 / well) and incubated in incubators under the same conditions for another 24 hours. Cells were precultured with serum-free medium (Gibco) containing 5% DILUTED GloSensor™cAMP reagent Reserve solution (Progema) for 2 h. The base cAMP signal was directly measured using a multimode tablet reader (PerkinElmer Envision). At the same time, the cAMP signal induced by DHA, PIP-TT, PQ, CQ bradykinin or des-Arg9-bradykinin was detected after adding agonists into the corresponding Wells. Finally, the s-shaped dose response function in GraphPad Prism 7.0 was used to analyze the data.

[4] = target: T1, PfSR10; test: Gi1-Gγ dissociation BRET assay in PfSR10-overexpressing HEK293 cells; type: cell-based; details: for Gi1 coupling with PfSR10 (in words): G protein dissociation assay
Source text: (§2) To characterize the G protein signalling properties of PfSR10, G protein BRET probes were generated according to previous publication.[50] The Gqo BRET probes were generated by replacing the six amino acids of the C- terminus of Gq -RlucII with those from GoA1, creating a chimeric Gqo-RlucII subunit.[51] HEK293 cells or COS-7 cells were co-transfected with PfSR10 and various G protein probes (Gi, Gq and Gqo). Forty-eight hours post-transfection, cells were washed twice with HBSS, resuspended with HBSS buffer, and seeded into a 96-well plate at a density of 5x10^4 per well. After adding increasing concentrations of ligand (CQ, DHA, PIP-TT, PQ, Bradykinin, des-Arg9-bradykinin, bradykinin-Arg-FITC, FITC-bradykinin) together with luciferase substrate coelenterazine 400a (5 μM, Cayman), the BRET signals between […] (440-480 nm) and GFP2 (510 nm) emissions were examined by a Mithras LB 940 Multimode Microplate Reader (Berthold Technologies). The BRET signal was calculated as the ratio of the GFP2 emission to Nluc emission.

[5] = target: T1, PfSR10; test: Gq-Gγ dissociation BRET assay in PfSR10-overexpressing HEK293 cells; type: cell-based
Source text: as §2

[6] = target: PcSR10 (Plasmodium chabaudi, UniProt A0A4V0KCI5); test: Gi dissociation assay in HEK293 cells overexpressing PcSR10; type: cell-based; details: read-out: Gi activity EC50 downstream of PcSR10
[7] = target: PySR10 (Plasmodium yoelii, UniProt V7PQD6); test: Gi dissociation assay in HEK293 cells overexpressing PySR10; type: cell-based; details: read-out: Gi activity EC50 downstream of PySR10
[8] = target: T1, PfSR10; test: cAMP inhibition in PfSR10-overexpressing COS-7 cells; type: cell-based; details: read-out: EC50 in COS-7 cell
Method: as §1

[9] = target: PySR10 (SR10 of Plasmodium yoelii) (Plasmodium yoelii)
[10] = target: PcSR10 (SR10 of Plasmodium chabaudi) (Plasmodium chabaudi)

T1 sequence (Q8I5P8 entry or part of it): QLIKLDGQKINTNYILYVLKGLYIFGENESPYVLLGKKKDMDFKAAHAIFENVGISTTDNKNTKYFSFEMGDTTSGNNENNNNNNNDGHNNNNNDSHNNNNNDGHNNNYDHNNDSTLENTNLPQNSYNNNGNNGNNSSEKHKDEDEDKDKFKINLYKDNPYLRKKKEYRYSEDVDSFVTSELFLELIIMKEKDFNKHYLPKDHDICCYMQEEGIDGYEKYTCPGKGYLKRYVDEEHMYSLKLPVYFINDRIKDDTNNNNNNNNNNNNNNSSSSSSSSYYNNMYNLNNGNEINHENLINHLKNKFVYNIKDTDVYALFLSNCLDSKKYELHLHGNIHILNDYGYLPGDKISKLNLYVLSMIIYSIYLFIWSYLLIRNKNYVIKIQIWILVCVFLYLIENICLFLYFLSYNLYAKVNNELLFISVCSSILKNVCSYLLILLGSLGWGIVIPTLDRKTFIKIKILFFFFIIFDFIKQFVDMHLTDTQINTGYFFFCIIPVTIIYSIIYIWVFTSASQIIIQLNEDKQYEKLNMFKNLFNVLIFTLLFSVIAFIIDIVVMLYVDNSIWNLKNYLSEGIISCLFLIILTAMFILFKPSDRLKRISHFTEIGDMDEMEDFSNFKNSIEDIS
Sequence of PcSR10 (A0A4V0KCI5 entry or part of it): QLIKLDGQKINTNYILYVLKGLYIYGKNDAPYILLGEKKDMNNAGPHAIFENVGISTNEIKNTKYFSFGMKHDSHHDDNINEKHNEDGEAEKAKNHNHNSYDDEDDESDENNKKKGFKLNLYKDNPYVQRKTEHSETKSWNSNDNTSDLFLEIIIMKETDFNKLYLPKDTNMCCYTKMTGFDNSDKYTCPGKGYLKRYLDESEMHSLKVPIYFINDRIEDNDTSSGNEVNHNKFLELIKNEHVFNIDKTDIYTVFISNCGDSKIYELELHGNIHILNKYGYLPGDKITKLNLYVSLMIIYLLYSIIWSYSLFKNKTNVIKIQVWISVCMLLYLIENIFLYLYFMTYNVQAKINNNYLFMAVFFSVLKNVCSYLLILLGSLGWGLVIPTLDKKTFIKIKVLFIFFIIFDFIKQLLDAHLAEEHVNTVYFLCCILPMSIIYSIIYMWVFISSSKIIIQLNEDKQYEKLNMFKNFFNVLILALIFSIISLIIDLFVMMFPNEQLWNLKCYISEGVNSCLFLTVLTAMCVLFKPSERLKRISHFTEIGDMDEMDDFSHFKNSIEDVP
Sequence of PySR10 (V7PQD6 entry or part of it): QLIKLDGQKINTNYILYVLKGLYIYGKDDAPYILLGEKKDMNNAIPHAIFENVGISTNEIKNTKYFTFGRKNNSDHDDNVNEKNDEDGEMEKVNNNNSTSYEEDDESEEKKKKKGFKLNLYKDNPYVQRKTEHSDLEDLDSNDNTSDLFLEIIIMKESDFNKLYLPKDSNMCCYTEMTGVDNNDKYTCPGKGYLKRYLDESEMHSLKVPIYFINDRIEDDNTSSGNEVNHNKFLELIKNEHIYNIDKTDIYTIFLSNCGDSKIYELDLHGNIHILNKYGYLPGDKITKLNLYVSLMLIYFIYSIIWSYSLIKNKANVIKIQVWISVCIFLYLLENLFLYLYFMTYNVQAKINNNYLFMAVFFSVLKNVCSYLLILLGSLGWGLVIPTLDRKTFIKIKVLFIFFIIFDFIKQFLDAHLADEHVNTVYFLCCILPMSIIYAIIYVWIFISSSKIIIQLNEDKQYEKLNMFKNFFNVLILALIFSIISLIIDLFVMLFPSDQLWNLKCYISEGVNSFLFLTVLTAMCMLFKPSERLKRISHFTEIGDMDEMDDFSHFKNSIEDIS
Sequence of PbSR10 (A0A509AUP3 entry or part of it): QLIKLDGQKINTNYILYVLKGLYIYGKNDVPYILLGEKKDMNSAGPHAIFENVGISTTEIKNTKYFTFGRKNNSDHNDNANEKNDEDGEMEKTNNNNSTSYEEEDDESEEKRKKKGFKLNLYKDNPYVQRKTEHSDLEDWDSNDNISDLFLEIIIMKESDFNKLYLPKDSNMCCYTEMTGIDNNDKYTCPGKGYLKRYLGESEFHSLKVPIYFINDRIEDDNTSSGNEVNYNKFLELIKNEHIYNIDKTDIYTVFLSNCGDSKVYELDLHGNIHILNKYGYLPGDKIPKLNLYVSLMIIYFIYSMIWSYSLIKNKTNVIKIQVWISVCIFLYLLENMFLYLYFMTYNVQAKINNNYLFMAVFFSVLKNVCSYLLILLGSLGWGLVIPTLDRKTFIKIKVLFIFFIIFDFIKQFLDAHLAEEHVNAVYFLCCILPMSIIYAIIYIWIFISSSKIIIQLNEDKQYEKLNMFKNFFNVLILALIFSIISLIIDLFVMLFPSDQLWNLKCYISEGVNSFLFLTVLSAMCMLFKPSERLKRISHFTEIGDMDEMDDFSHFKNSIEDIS

COc1cc(NC(C)CCCN)c2ncccc2c1 (stereo not shown) [PQ, primaquine diphosphate]
Gi dissociation downstream of PbSR10 [1]: promoted Gi dissociation | ECL1 movement relative to the PfSR10 N-terminus ([2]; concentration-dependent): inward movement of ECL1 toward the PfSR10 N-terminus | EC50 [3]: 17.4 ± 4.77 nM | cAMP inhibition Emax ([3]; HEK293 cells overexpressing PfSR10, mean ± SEM): 1.153 ± 0.06 × 10^3

N=C(N)NCCC[C@H](NC(=O)[C@H](Cc1ccccc1)NC(=O)[C@@H]1CCCN1C(=O)[C@H](CO)NC(=O)[C@H](Cc1ccccc1)NC(=O)CNC(=O)[C@@H]1CCCN1C(=O)[C@@H]1CCCN1C(=O)[C@@H](N)CCCNC(=N)N)C(=O)O [bradykinin] (H-RPPGFSPFR-OH)
Gi1 coupling with PfSR10 (in words) [4]: promoted Gi1 coupling to PfSR10 | Gq dissociation signal (in words) ([5]; PfSR10-overexpressing cells): remarkable reduction | ECL movements of PfSR10 by FlAsH-BRET sensors (kinin peptides) [2]: movement of ECL1 and ECL3 toward the N-terminus and separation of the ECL2 region and N-terminus of PfSR10 | Fsk-induced cAMP level elevation (in words) [3]: significantly inhibited

NC(N)=NCCC[C@H](NC(=O)[C@H](Cc1ccccc1)NC(=O)[C@@H]1CCCN1C(=O)[C@H](CO)NC(=O)[C@H](Cc1ccccc1)NC(=O)CNC(=O)[C@@H]1CCCN1C(=O)[C@@H]1CCCN1C(=O)[C@@H](N)CCCN=C(N)N)C(=O)O [bradykinin] (H-RPPGFSPFR-OH)
EC50 [4]: 0.38 ± 0.11 nM | EC50 [6]: 0.15 ± 0.005 nM | EC50 [5]: 0.53 ± 0.06 nM | EC50 [7]: 0.67 ± 0.29 nM | EC50 [3]: 1.82 ± 0.83 nM

N=C(N)NCCC[C@H](N)C(=O)N1CCC[C@H]1C(=O)N1CCC[C@H]1C(=O)NCC(=O)N[C@@H](Cc1ccccc1)C(=O)N[C@@H](CO)C(=O)N1CCC[C@H]1C(=O)N[C@@H](Cc1ccccc1)C(=O)O [des-Arg9-bradykinin]
Gi1 coupling with PfSR10 (in words) [4]: promoted Gi1 coupling to PfSR10 | ECL movements of PfSR10 by FlAsH-BRET sensors (kinin peptides) [2]: movement of ECL1 and ECL3 toward the N-terminus and separation of the ECL2 region and N-terminus of PfSR10 | EC50 [8]: 0.29 ± 0.08 nM | Fsk-induced cAMP level elevation (in words) [3]: significantly inhibited

B1: bradykinin (peptide)
peptide: RPPGFSPFR
EC50 of Gi activity downstream of PySR10, concentration-dependent [9]: 0.67 nM | EC50 of Gi activity downstream of PcSR10, concentration-dependent [10]: 0.15 nM

Reference: paper PMC12639566, “Identification of antimalarial drugs and bradykinin as ligands of the Plasmodium membrane protein PfSR10” (iScience, 2025)
